From US20260265248A1, “NOVEL PD-L1 INHIBITORS” (AFFIRMA BIOTECH S. L., priority 2023, published 2026)

These compounds were tested against T1, PD-1/PD-L1 (Homo sapiens, UniProt Q9NZQ7) (assay: PD1-PDL1 HTRF assay). Conditions: PD-1/PD-L1 homogenous time-resolved fluorescence (HTRF) binding assay; Tag1-PDL1 5 nM, Tag2-PD1 50 nM.
T1 construct: purchased CisBio
Procedure, shortened: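 Compound (8 concentrations) was preincubated 15 min at room temperature with Tag1-PD-L1 and Tag2-PD-1, added as 5 nM and 50 nM solutions. Eu-labelled anti-Tag1 and XL665-labelled anti-Tag2 were then added for 1 h, and the 665/620 nm ratio (×10^4; excitation 320 nm) was fitted to the Hill equation for IC50.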

T1 sequence (Q9NZQ7 19-238 limits assumed): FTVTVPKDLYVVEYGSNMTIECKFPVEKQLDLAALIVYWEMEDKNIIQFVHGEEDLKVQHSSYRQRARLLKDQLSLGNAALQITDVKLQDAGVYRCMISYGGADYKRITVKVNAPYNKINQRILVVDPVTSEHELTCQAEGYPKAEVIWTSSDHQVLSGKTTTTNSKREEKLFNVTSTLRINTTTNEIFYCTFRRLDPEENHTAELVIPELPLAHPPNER

IC50	Structure (SMILES)
100 to 1000 nM	Cc1c(-c2ccc(CNCCO)cc2)cccc1-c1cccc(-c2ccn3c(NCCO)nnc3c2)c1C [Example 85, 2-(((3″-(3-((2-hydroxyethyl)amino)-[1,2,4]triazolo[4,3-a]pyridin-7-yl)-2′,2″-dimethyl-[1,1′:3′,1″-terphenyl]-4-yl)methyl)amino)ethan-1-ol]
10 to 100 nM	Cc1c(-c2ccc(CNCCO)cc2)cccc1-c1cccc(-c2ccn3c(CNC[C@@H]4CCC(=O)N4)nnc3c2)c1C [Example 86, (S)-5-((((7-(4″-(((2-hydroxyethyl)amino)methyl)-2,2′-dimethyl-[1,1′:3′,1″-terphenyl]-3-yl)-[1,2,4]triazolo[4,3-a]pyridin-3-yl)methyl)amino)methyl)pyrrolidin-2-one]
10 to 100 nM	Cc1c(-c2ccc(CNCCO)cc2)cccc1-c1cccc(-c2ccn3c(CN4CC[C@@H](C(=O)O)C4)nnc3c2)c1C [Example 87, (R)-1-((7-(4″-(((2-hydroxyethyl)amino)methyl)-2,2′-dimethyl-[1,1′:3′,1″-terphenyl]-3-yl)-[1,2,4]triazolo[4,3-a]pyridin-3-yl)methyl)pyrrolidine-3-carboxylic acid]
10 to 100 nM	Cc1c(-c2ccc(CNCCO)cc2)cccc1-c1cccc(-c2ccn3c(CN4CCC[C@@H]4C(=O)O)nnc3c2)c1C [Example 88, ((7-(4″-(((2-hydroxyethyl)amino)methyl)-2,2′-dimethyl-[1,1′:3′,1″-terphenyl]-3-yl)-[1,2,4]triazolo[4,3-α]pyridin-3-yl)methyl)-D-proline]
100 to 1000 nM	Cc1c(-c2ccn3c(CNCCO)nnc3c2)cccc1-c1cccc(-c2ccn3c(CNCCO)nnc3c2)c1C [Example 89, 2,2′-((((2,2′-dimethyl-[1,1′-biphenyl]-3,3′-diyl)bis([1,2,4]triazolo[4,3-a]pyridine-7,3-diyl))bis(methylene))bis(azanediyl))bis(ethan-1-ol)]
10 to 100 nM	Cc1c(-c2ccc(CNCCO)cc2)cccc1-c1cccc(-c2ccn3c(CNCCO)nnc3c2)c1C [Example 91, 2-(((7-(4″-(((2-hydroxyethyl)amino)methyl)-2,2′-dimethyl-[1,1′:3′,1″-terphenyl]-3-yl)-[1,2,4]triazolo[4,3-α]pyridin-3-yl)methyl)amino)ethan-1-ol]
≤ 10 nM	Cc1c(NC(=O)c2ccc(CNCCO)cn2)cccc1-c1cccc(-c2ccn3c(CNCCO)nnc3c2)c1C [Example 92, 5-(((2-hydroxyethyl)amino)methyl)-N-(3′-(3-(((2-hydroxyethyl)amino)methyl)-[1,2,4]triazolo[4,3-a]pyridin-7-yl)-2,2′-dimethyl-[1,1′-biphenyl]-3-yl)picolinamide]
100 to 1000 nM	Cc1c(NC(=O)c2ccc(CNCCO)cc2)cccc1-c1cccc(-c2ccn3c(CNCCO)nnc3c2)c1C [Example 93, 4-(((2-hydroxyethyl)amino)methyl)-N-(3′-(3-(((2-hydroxyethyl)amino)methyl)-[1,2,4]triazolo[4,3-α]pyridin-7-yl)-2,2′-dimethyl-[1,1′-biphenyl]-3-yl)benzamide]
≤ 10 nM	OCCNCc1ccc(-c2cccc(-c3cccc(-c4ccn5c(CNCCO)nnc5c4)c3Cl)c2Cl)cc1 [Example 96, 2-(((2′,2″-dichloro-3″-(3-(((2-hydroxyethyl)amino)methyl)-[1,2,4]triazolo[4,3-a]pyridin-7-yl)-[1,1′:3′,1″-terphenyl]-4-yl)methyl)amino)ethan-1-ol]
10 to 100 nM	Cc1c(-c2ccc(CNCCO)cc2)cccc1-c1cccc(-c2ccn3nc(CNCCO)nc3c2)c1C [Example 98, 2-(((7-(4″-(((2-hydroxyethyl)amino)methyl)-2,2′-dimethyl-[1,1′:3′,1″-terphenyl]-3-yl)-[1,2,4]triazolo[1,5-a]pyridin-2-yl)methyl)amino)ethan-1-ol]
10 to 100 nM	Cc1c(-c2ccc(CNCCO)cc2)cccc1-c1cccc(-c2ccn3nc(CNC[C@@H]4CCC(=O)N4)nc3c2)c1C [Example 102, (S)-5-((((7-(4″-(((2-hydroxyethyl)amino)methyl)-2,2′-dimethyl-[1,1′:3′,1″-terphenyl]-3-yl)-[1,2,4]triazolo[1,5-a]pyridin-2-yl)methyl)amino)methyl) pyrrolidin-2-one]

More lines, now with the values behind:

Structure (SMILES)	IC50
Cc1c(Nc2nccc3cc(CNCCO)cnc23)cccc1-c1cccc(-c2ccn3c(-c4ccc(CNCCO)cc4)nnc3c2)c1C [Example 84, 2-((4-(7-(3′-((3-(((2-hydroxyethyl)amino)methyl)-1,7-naphthyridin-8-yl)amino)-2,2′-dimethyl-[1,1′-biphenyl]-3-yl)-[1,2,4]triazolo[4,3-a]pyridin-3-yl)benzyl)amino)ethan-1-ol]	≤ 10 nM
Cc1c(-c2ccc(CNC[C@@H]3CCC(=O)N3)cc2)cccc1-c1cccc(-c2ccn3c(CNC[C@@H]4CCC(=O)N4)nnc3c2)c1C [Example 90, (S)-5-((((2′,2″-dimethyl-3″-(3-(((((S)-5-oxopyrrolidin-2-yl)methyl)amino)methyl)-[1,2,4]triazolo[4,3-a]pyridin-7-yl)-[1,1′:3′,1″-terphenyl]-4-yl)methyl)amino)methyl)pyrrolidin-2-one]	≤ 10 nM
COc1nc(-c2cccc(-c3cccc(-c4ccc5nnc(CNC[C@@H]6CCC(=O)N6)n5c4)c3C)c2C)cnc1CNC[C@@H]1CCC(=O)N1 [Example 94, (S)-5-((((5-(2,2′-dimethyl-3′-(3-(((((S)-5-oxopyrrolidin-2-yl)methyl)amino)methyl)-[1,2,4]triazolo[4,3-a]pyridin-6-yl)-[1,1′-biphenyl]-3-yl)-3-methoxypyrazin-2-yl)methyl)amino)methyl)pyrrolidin-2-one]	≤ 10 nM
Cc1c(NC(=O)c2ccc(CNCCO)cn2)cccc1-c1cccc(-c2ccn3c(CNC[C@@H]4CCC(=O)N4)nnc3c2)c1C [Example 95, (S)—N-(2,2′-dimethyl-3′-(3-((((5-oxopyrrolidin-2-yl)methyl)amino)methyl)-[1,2,4]triazolo[4,3-a]pyridin-7-yl)-[1,1′-biphenyl]-3-yl)-5-(((2-hydroxyethyl)amino)methyl)picolinamide]	≤ 10 nM
O=C1CC[C@@H](CNCc2ccc(-c3cccc(-c4cccc(-c5ccn6c(CNC[C@@H]7CCC(=O)N7)nnc6c5)c4Cl)c3Cl)cc2)N1 [Example 97, (S)-5-((((21,2″-dichloro-3″-(3-(((((S)-5-oxopyrrolidin-2-yl)methyl)amino)methyl)-[1,2,4]triazolo[4,3-α]pyridin-7-yl)-[1,1′:3′,1″-terphenyl]-4-yl)methyl)amino)methyl)pyrrolidin-2-one]	≤ 10 nM
Cc1c(-c2ccc(CNC[C@@H]3CCC(=O)N3)cc2)cccc1-c1cccc(-c2ccn3nc(CNC[C@@H]4CCC(=O)N4)nc3c2)c1C [Example 99, (S)-5-((((21,2″-dimethyl-3″-(2-(((((S)-5-oxopyrrolidin-2-yl)methyl)amino)methyl)-[1,2,4]triazolo[1,5-a]pyridin-7-yl)-[1,1′:3′,1″-terphenyl]-4-yl)methyl)amino)methyl)pyrrolidin-2-one]	≤ 10 nM
Cc1c(NC(=O)c2ccc(CNCCO)cn2)cccc1-c1cccc(-c2ccn3nc(CNCCO)nc3c2)c1C [Example 100, 5-(((2-hydroxyethyl)amino)methyl)-N-(3′-(2-(((2-hydroxyethyl)amino)methyl)-[1,2,4]triazolo[1,5-a]pyridin-7-yl)-2,2′-dimethyl-[1,1′-biphenyl]-3-yl)picolinamide]	≤ 10 nM
Cc1c(NC(=O)c2ccc(CNCCO)cc2)cccc1-c1cccc(-c2ccn3nc(CNCCO)nc3c2)c1C [Example 101, 4-(((2-hydroxyethyl)amino)methyl)-N-(3′-(2-(((2-hydroxyethyl)amino)methyl)-[1,2,4]triazolo[1,5-a]pyridin-7-yl)-2,2′-dimethyl-[1,1′-biphenyl]-3-yl)benzamide]	≤ 10 nM
Cc1c(NC(=O)c2ccc(CNCCO)cc2)cccc1-c1cccc(-c2ccn3nc(CNC[C@@H]4CCC(=O)N4)nc3c2)c1C [Example 103, (S)—N-(2,2′-dimethyl-3′-(2-((((5-oxopyrrolidin-2-yl)methyl)amino)methyl)-[1,2,4]triazolo[1,5-a]pyridin-7-yl)-[1,1′-biphenyl]-3-yl)-4-(((2-hydroxyethyl)amino)methyl)benzamide]	100 to 1000 nM
OCCNCc1ccc(-c2cccc(-c3cccc(-c4ccn5nc(CNCCO)nc5c4)c3Cl)c2Cl)cc1 [Example 104, 2-(((2′,2″-dichloro-3″-(2-(((2-hydroxyethyl)amino)methyl)-[1,2,4]triazolo[1,5-a]pyridin-7-yl)-[1,1′:3′,1″-terphenyl]-4-yl)methyl)amino)ethan-1-ol]	≤ 10 nM
O=C1CC[C@@H](CNCc2ccc(-c3cccc(-c4cccc(-c5ccn6nc(CNC[C@@H]7CCC(=O)N7)nc6c5)c4Cl)c3Cl)cc2)N1 [Example 105, (S)-5-((((21,2″-dichloro-3″-(2-(((((S)-5-oxopyrrolidin-2-yl)methyl)amino)methyl)-[1,2,4]triazolo[1,5-α]pyridin-7-yl)-[1,1′:3′,1″-terphenyl]-4-yl)methyl)amino)methyl)pyrrolidin-2-one]	≤ 10 nM
CC(C)(CO)NCc1ccc(-c2cccc(-c3cccc(-c4ccn5nc(CNC(C)(C)CO)nc5c4)c3Cl)c2Cl)cc1 [Example 106, 2-(((21,2″-dichloro-3″-(2-(((1-hydroxy-2-methylpropan-2-yl)amino)methyl)-[1,2,4]triazolo[1,5-a]pyridin-7-yl)-[1,1′:3′,1″-terphenyl]-4-yl)methyl)amino)-2-methylpropan-1-ol]	≤ 10 nM
CC(=O)NCCNCc1ccc(-c2cccc(-c3cccc(-c4ccn5nc(CNCCNC(C)=O)nc5c4)c3Cl)c2Cl)cc1 [Example 109, N-(2-(((7-(4″-(((2-acetamidoethyl)amino)methyl)-2,2′-dichloro-[1,1′:3′,1″-terphenyl]-3-yl)-[1,2,4]triazolo[1,5-a]pyridin-2-yl)methyl)amino)ethyl)acetamide]	≤ 10 nM
OCCCNCc1ccc(-c2cccc(-c3cccc(-c4ccn5nc(CNCCCO)nc5c4)c3Cl)c2Cl)cc1 [Example 111, 3-(((2′,2″-dichloro-3″-(2-(((3-hydroxypropyl)amino)methyl)-[1,2,4]triazolo[1,5-a]pyridin-7-yl)-[1,1′:3′,1″-terphenyl]-4-yl)methyl)amino)propan-1-ol]	≤ 10 nM
